Experimental data published in ChEMBL document CHEMBL5143636, “Design, synthesis and structure-activity relationship studies of pyrido[2,3-d]pyrimidin-7-ones as potent Janus Kinase 3 (JAK3) covalent inhibitors” (Bioorg Med Chem Lett, 2022).
Active and inactive are the calls of the source. The rule behind the calls is not given here.

Assays:
[1] = test system: U-937; experiment: Antiproliferative activity against human U-937 cells harbouring JAK3 M511 mutation assessed as reduction in cell viability incubated for 72 hrs by CCK-8 assay; format: functional, cell-based; conditions: U-937, 72 h
[2] = biological target: T1, Tyrosine-protein kinase JAK3 (Homo sapiens, UniProt P52333)
T1 sequence (P52333 whole entry): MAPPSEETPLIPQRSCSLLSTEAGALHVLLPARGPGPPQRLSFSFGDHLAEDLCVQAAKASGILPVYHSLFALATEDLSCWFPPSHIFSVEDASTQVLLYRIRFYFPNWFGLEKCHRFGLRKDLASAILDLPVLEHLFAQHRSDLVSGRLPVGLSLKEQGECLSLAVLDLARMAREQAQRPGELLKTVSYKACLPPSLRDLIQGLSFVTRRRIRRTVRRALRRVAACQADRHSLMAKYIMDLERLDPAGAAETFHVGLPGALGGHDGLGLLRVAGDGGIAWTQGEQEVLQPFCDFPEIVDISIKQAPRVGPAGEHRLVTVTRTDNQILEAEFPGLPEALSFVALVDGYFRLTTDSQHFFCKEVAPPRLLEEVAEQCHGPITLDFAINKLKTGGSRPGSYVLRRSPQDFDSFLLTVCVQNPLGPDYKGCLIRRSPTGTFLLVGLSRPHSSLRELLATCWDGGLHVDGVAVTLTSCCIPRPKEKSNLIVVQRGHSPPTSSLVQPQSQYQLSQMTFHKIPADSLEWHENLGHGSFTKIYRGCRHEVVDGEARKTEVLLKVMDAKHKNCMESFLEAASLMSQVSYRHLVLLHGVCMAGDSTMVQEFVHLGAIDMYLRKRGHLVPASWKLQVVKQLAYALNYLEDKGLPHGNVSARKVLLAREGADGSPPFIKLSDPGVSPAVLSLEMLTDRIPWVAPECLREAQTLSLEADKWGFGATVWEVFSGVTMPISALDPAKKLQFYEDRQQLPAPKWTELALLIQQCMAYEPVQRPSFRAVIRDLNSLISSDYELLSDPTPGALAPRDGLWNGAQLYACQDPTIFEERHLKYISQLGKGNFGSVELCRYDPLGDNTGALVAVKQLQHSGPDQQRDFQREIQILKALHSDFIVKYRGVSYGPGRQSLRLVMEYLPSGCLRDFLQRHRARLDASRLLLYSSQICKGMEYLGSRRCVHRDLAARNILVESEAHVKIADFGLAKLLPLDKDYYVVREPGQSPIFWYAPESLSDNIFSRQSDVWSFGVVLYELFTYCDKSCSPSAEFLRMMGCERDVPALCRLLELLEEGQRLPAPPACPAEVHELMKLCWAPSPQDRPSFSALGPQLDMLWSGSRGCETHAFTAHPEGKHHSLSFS
Description: Covalent inhibition of recombinant recombinant human GST-tagged JAK3(781 to 1124 residues) expressed in baculovirus expression system incubated for 1 hr in the presence of ATP by FRET based Z'-LYTE assay

[3] = biological target: T1, Tyrosine-protein kinase JAK3; experiment: Inhibition of JAK3 (unknown origin) incubated for 1 hr in the presence of ATP by FRET based Z'-LYTE assay
[4] = test system: Daudi; experiment: Antiproliferative activity against human Daudi cells assessed as reduction in cell viability incubated for 72 hrs by CCK-8 assay; format: functional, cell-based
[5] = Selectivity ratio of IC50 for inhibition of BTK (unknown origin) to IC50 for covalent inhibition of recombinant human GST-tagged JAK3 (781 to 1124 residues) expressed in baculovirus expression system
[6] = test system: NCI-H1299; experiment: Antiproliferative activity against human NCI-H1299 cells assessed as reduction in cell viability incubated for 72 hrs by CCK-8 assay; format: functional, cell-based; conditions: NCI-H1299, 72 h
[7] = biological target: Tyrosine-protein kinase JAK1 (Homo sapiens, UniProt P23458); experiment: Inhibition of JAK1 (unknown origin) incubated for 1 hr in the presence of ATP by FRET based Z'-LYTE assay
[8] = biological target: T2, Signal transducer and activator of transcription 5A (Homo sapiens) (UniProt P42229); experiment: Inhibition STAT5 phosphorylation in human U-937 cells measured after 12 hrs by Western blotting analysis; format: cell-based; conditions: dose 12.5-200 nM, DDE = dose-dependent effect
T2 sequence (whole entry): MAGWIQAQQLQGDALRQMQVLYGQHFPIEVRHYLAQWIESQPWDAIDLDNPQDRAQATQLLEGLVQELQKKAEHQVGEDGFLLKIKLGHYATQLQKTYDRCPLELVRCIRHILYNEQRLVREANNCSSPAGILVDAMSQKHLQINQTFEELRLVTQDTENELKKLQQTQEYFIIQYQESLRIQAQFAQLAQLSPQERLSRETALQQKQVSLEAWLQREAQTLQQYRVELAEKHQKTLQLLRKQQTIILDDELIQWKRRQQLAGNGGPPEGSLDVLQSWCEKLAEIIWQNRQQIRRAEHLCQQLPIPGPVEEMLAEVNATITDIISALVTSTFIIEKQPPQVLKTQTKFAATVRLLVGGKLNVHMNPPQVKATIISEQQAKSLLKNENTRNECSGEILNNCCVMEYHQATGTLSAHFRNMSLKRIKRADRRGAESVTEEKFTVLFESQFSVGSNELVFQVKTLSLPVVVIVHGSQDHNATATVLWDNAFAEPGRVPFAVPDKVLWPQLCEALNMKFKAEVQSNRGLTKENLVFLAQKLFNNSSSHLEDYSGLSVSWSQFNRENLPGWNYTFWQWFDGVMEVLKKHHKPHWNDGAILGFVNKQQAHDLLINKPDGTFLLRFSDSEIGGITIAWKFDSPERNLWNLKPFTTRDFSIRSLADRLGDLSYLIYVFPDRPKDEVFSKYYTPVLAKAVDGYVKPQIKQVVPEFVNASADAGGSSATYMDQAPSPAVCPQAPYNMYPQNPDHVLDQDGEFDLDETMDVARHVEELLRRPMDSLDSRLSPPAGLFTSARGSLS

[9] = test system: MOLT-4; experiment: Antiproliferative activity against human MOLT-4 cells assessed as reduction in cell viability incubated for 72 hrs by CCK-8 assay; format: functional, cell-based; conditions: MOLT-4, 72 h
[10] = test system: HCT-116; experiment: Antiproliferative activity against human HCT-116 cells assessed as reduction in cell viability incubated for 72 hrs by CCK-8 assay; format: functional, cell-based; conditions: HCT-116, 72 h
[11] = test system: COLO 205; experiment: Antiproliferative activity against human COLO 205 cells assessed as reduction in cell viability incubated for 72 hrs by CCK-8 assay; format: functional, cell-based; conditions: COLO 205, 72 h
[12] = test system: Jurkat; experiment: Antiproliferative activity against human Jurkat cells assessed as reduction in cell viability incubated for 72 hrs by CCK-8 assay; format: functional, cell-based
[13] = test system: U-937; experiment: Effect on STAT5 protein level in human U-937 cells at 12.5 to 200 nM measured after 12 hrs by Western blotting analysis; format: functional, cell-based; conditions: dose 12.5-200 nM
[14] = test system: MDA-MB-231; experiment: Antiproliferative activity against human MDA-MB-231 cells assessed as reduction in cell viability incubated for 72 hrs by CCK-8 assay; format: functional, cell-based; conditions: MDA-MB-231, 72 h
[15] = biological target: Epidermal growth factor receptor (Homo sapiens, UniProt P00533); experiment: Inhibition of wild type EGFR (unknown origin) incubated for 1 hr in the presence of ATP by FRET based Z'-LYTE assay
[16] = biological target: T3, Tyrosine-protein kinase JAK3 (Homo sapiens) (UniProt P52333); experiment: Inhibition of JAK3 phosphorylation in human U-937 cells at 200 nM preincubated for 6 hrs followed by compound washout and measured upto 24 hrs by Western blotting analysis; format: cell-based
T3 sequence (whole entry): T1 sequence (P52333 whole entry)

[17] = biological target: Tyrosine-protein kinase BTK (Homo sapiens, UniProt Q06187); experiment: Inhibition of BTK (unknown origin) incubated for 1 hr in the presence of ATP by FRET based Z'-LYTE assay
Chain of Tyrosine-protein kinase BTK (Q06187 whole entry): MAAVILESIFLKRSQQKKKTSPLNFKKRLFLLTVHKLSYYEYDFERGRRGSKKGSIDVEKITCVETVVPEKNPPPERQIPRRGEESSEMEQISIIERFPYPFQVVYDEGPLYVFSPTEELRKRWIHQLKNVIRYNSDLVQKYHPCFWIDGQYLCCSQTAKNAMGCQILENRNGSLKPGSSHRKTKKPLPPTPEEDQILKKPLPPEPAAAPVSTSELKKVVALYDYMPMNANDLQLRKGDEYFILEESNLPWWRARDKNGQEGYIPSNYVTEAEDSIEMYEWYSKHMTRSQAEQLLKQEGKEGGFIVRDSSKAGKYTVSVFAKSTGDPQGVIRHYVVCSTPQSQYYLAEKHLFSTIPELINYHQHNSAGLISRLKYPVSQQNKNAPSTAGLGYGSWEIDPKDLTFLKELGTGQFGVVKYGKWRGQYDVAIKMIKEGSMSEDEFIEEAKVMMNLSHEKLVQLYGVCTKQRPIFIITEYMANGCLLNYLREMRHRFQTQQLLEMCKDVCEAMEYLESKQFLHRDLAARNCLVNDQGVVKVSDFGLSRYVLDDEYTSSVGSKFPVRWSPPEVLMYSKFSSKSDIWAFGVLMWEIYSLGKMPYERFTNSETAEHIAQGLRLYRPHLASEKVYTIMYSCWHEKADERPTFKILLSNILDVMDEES

[18] = biological target: Epidermal growth factor receptor (Homo sapiens, UniProt P00533, T790M); experiment: Inhibition of EGFR T790M mutant (unknown origin) incubated for 1 hr in the presence of ATP by FRET based Z'-LYTE assay
Chain of Epidermal growth factor receptor (Homo sapiens, UniProt P00533, T790M) (P00533 25-1210 T790M limits assumed): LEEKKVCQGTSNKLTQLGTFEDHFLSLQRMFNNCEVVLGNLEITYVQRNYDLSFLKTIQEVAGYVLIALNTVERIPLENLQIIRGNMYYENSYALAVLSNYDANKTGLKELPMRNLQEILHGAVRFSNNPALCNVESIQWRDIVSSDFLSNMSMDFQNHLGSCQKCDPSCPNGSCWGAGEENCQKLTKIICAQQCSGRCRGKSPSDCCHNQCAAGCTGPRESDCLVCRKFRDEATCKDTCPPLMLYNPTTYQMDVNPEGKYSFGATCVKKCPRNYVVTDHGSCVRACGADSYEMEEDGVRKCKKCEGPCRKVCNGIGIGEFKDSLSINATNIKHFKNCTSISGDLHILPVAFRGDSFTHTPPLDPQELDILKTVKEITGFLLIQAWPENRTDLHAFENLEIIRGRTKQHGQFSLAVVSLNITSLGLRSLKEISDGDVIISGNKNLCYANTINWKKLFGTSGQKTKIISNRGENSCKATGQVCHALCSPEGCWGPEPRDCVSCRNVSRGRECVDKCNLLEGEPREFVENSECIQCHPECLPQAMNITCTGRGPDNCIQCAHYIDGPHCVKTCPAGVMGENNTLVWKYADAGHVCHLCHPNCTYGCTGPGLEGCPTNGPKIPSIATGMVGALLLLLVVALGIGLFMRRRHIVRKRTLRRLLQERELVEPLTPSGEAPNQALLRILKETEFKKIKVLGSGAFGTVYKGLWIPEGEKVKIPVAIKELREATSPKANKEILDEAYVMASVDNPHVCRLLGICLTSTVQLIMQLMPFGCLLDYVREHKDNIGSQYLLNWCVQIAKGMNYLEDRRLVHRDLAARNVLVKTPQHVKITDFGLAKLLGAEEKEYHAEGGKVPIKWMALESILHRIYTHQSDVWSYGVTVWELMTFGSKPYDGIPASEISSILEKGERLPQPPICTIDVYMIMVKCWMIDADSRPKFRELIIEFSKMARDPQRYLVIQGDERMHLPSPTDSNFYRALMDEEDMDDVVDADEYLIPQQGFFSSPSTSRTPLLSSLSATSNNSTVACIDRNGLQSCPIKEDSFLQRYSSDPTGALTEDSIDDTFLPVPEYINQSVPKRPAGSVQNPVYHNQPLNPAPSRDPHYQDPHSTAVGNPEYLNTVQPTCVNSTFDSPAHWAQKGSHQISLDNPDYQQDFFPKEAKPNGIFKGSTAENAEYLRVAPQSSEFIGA

[19] = Selectivity ratio of IC50 for inhibition of wild type EGFR (unknown origin) to IC50 for covalent inhibition of recombinant human GST-tagged JAK3 (781 to 1124 residues) expressed in baculovirus expression system
[20] = test system: OCI-Ly3; experiment: Antiproliferative activity against human OCILY3 cells assessed as reduction in cell viability incubated for 72 hrs by CCK-8 assay; format: functional, cell-based; conditions: OCI-Ly3, 72 h
[21] = biological target: T3, Tyrosine-protein kinase JAK3 (Homo sapiens); experiment: Inhibition of JAK3 phosphorylation in human U-937 cells measured after 12 hrs by Western blotting analysis; format: cell-based; conditions: dose 12.5-200 nM, DDE = dose-dependent effect
[22] = biological target: Tyrosine-protein kinase JAK2 (Homo sapiens, UniProt O60674); experiment: Inhibition of JAK2 (unknown origin) incubated for 1 hr in the presence of ATP by FRET based Z'-LYTE assay
Chain of Tyrosine-protein kinase JAK2 (O60674 whole entry): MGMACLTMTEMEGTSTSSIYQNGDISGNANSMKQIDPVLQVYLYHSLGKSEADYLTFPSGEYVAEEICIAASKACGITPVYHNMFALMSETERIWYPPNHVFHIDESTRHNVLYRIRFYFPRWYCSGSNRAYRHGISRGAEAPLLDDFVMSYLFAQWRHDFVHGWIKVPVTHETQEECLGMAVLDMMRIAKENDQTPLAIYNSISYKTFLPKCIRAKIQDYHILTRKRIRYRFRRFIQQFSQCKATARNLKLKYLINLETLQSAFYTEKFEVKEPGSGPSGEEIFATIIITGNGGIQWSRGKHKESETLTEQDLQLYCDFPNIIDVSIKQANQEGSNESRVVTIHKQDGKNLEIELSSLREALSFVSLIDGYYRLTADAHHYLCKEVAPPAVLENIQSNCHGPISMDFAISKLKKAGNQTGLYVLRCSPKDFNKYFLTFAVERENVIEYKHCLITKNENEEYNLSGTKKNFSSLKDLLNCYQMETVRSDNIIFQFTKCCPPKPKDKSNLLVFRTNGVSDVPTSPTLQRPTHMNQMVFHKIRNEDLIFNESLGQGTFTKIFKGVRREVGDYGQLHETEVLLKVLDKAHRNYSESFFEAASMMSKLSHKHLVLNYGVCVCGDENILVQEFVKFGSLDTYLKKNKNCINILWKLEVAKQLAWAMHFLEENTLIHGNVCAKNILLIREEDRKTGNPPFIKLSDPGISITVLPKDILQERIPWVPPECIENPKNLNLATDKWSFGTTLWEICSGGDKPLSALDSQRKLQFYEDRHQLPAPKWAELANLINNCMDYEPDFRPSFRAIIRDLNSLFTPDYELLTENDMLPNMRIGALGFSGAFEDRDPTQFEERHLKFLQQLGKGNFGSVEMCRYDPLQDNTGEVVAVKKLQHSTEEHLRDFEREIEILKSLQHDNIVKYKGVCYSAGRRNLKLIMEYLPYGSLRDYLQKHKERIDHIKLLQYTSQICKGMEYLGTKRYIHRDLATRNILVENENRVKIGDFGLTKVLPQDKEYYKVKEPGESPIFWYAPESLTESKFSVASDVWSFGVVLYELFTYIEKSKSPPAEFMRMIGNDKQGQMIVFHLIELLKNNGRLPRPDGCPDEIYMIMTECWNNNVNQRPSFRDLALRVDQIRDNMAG

[23] = test system: U-937; experiment: Effect on JAK3 protein level in human U-937 cells at 12.5 to 200 nM measured after 12 hrs by Western blotting analysis; format: functional, cell-based; conditions: dose 12.5-200 nM
[24] = biological target: T2, Signal transducer and activator of transcription 5A (Homo sapiens); experiment: Inhibition of STAT5 phosphorylation in human U-937 cells at 200 nM preincubated for 6 hrs followed by compound washout and measured upto 24 hrs by Western blotting analysis; format: cell-based
[25] = Selectivity ratio of IC50 for inhibition of EGFR T790M mutant (unknown origin) to IC50 for covalent inhibition of recombinant human GST-tagged JAK3 (781 to 1124 residues) expressed in baculovirus expression system
[26] = biological target: Non-receptor tyrosine-protein kinase TYK2 (Homo sapiens, UniProt P29597); experiment: Inhibition of TYK2 (unknown origin) incubated for 1 hr in the presence of ATP by FRET based Z'-LYTE assay
Chain of Non-receptor tyrosine-protein kinase TYK2 (P29597 whole entry): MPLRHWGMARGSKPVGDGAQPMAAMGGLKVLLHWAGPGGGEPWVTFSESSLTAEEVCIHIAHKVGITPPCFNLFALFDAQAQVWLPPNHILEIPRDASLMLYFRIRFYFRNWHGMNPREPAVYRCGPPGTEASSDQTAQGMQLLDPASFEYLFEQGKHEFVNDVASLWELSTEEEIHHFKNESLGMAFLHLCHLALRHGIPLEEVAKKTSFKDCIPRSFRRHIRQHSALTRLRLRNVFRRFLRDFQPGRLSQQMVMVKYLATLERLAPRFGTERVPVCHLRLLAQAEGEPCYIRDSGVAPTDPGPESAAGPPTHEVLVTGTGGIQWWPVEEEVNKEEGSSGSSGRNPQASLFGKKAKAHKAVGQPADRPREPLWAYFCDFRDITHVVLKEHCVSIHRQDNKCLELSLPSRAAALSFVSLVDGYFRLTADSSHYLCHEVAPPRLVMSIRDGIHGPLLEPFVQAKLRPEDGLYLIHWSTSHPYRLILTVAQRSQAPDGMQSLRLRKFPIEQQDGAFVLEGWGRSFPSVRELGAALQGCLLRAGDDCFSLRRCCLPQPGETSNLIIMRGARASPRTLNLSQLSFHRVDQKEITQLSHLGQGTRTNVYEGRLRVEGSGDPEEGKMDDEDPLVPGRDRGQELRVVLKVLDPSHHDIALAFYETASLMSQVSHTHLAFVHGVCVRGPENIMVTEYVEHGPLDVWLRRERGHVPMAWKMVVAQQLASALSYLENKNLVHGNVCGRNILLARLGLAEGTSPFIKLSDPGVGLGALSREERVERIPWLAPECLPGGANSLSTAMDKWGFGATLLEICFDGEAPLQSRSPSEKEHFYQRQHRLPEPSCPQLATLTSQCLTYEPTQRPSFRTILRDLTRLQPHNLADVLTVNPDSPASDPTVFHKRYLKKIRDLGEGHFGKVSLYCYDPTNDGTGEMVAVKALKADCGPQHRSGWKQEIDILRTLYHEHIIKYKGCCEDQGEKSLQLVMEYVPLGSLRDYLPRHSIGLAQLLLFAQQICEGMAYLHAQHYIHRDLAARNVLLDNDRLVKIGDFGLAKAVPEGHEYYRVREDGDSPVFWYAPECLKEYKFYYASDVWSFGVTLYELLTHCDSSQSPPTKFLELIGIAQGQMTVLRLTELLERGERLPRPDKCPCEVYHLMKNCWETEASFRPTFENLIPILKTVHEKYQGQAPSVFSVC

C=CC(=O)Nc1cccc(Cn2c(=O)ccc3cnc(Nc4cnn(CCO)c4)nc32)c1
IC50 [1]: 470 nM | IC50 [2]: 1.7 nM

C=CC(=O)Nc1cccc(Cn2c(=O)ccc3cnc(Nc4ccc(C5CCN(C)CC5)cc4OC)nc32)c1
IC50 [1]: 520 nM | IC50 [2]: 4.1 nM

C=CC(=O)Nc1cccc(Cn2c(=O)ccc3cnc(Nc4ccc(N5CCN(C)CC5)cc4OC(C)C)nc32)c1
IC50 [2]: 1300 nM

C=CC(=O)Nc1cccc(Cn2c(=O)cc(CC)c3cnc(Nc4ccc(N5CCN(C)CC5)cc4OC)nc32)c1
IC50 [2]: 20 nM

C=CC(=O)Nc1cccc(Cn2c(=O)ccc3cnc(Nc4cnn(CCOC)c4)nc32)c1
IC50 [1]: 430 nM | IC50 [2]: 3.3 nM

C=CC(=O)Nc1cccc(Cn2c(=O)ccc3cnc(Nc4cnn(C)c4)nc32)c1
IC50 [1]: 220 nM | IC50 [2]: 1.8 nM

C=CC(=O)Nc1ccc(Cn2c(=O)ccc3cnc(Nc4ccccc4OC)nc32)cc1
IC50 [2]: 72.1 nM

C=CC(=O)N1C[C@H](Nc2ncnc3[nH]ccc23)CC[C@@H]1C [RITLECITINIB]
IC50 [1]: 40 nM

C=CC(=O)Nc1cccc(Cn2c(=O)cc(C3CC3)c3cnc(Nc4ccc(N5CCN(C)CC5)cc4OC)nc32)c1
IC50 [2]: 1450 nM

CCC(=O)Nc1cccc(Cn2c(=O)ccc3cnc(Nc4ccccc4OC)nc32)c1
IC50 [2]: > 10000 nM

C=CC(=O)Nc1cccc(Cn2c(=O)ccc3cnc(Nc4ccccc4OC)nc32)c1
IC50 [1]: 2020 nM | IC50 [2]: 3 nM

C=CC(=O)Nc1cccc(-n2c(=O)cc(C)c3cnc(Nc4ccc(N5CCN(C)CC5)cc4OC)nc32)c1
IC50 [3]: 31.3 nM

C=CC(=O)Nc1cccc(Cn2c(=O)ccc3cnc(Nc4ccc(N5CCN(C(C)=O)CC5)cc4OC)nc32)c1
IC50 [1]: 540 nM | IC50 [2]: 3.3 nM

C=CC(=O)Nc1cccc(Cn2c(=O)ccc3cnc(Nc4ccc(N5CCN(C)CC5)cc4OC)nc32)c1
IC50 [1]: 470 nM | IC50 [2]: 1.6 nM

C=CC(=O)Nc1cccc(Cn2c(=O)ccc3cnc(Nc4ccc(N(C)CCN(C)C)cc4OC)nc32)c1
IC50 [1]: 520 nM | IC50 [2]: 3.1 nM

C=CC(=O)Nc1cccc(Cn2c(=O)ccc3cnc(Nc4ccc(N5CCN(C)CC5)cc4OCC)nc32)c1
IC50 [1]: 1810 nM | IC50 [2]: 9.8 nM

C=CC(=O)Nc1ccccc1Cn1c(=O)ccc2cnc(Nc3ccccc3OC)nc21
IC50 [2]: > 10000 nM

C=CC(=O)Nc1cccc(Cn2c(=O)cc(CCC)c3cnc(Nc4ccc(N5CCN(C)CC5)cc4OC)nc32)c1
IC50 [2]: > 10000 nM

C=CC(=O)Nc1cccc(Cn2c(=O)ccc3cnc(Nc4ccc(N5CCN(C)CC5)cc4)nc32)c1
IC50 [4]: 2070 nM | Ratio IC50 [5]: 8 | IC50 [6]: 4780 nM | IC50 [7]: 2430 nM | inhibition [8]: Dde | IC50 [9]: 2250 nM | IC50 [10]: 3690 nM | IC50 [11]: 3840 nM | IC50 [12]: 2280 nM | Activity [13]: Active | IC50 [14]: 3030 nM | IC50 [1]: 50 nM | IC50 [15]: 261 nM | inhibition [16]: Active | IC50 [17]: 15.6 nM | IC50 [18]: 216 nM | IC50 [2]: 2 nM | Ratio IC50 [19]: > 100 | IC50 [20]: 1530 nM | inhibition [21]: Dde | IC50 [22]: 1130 nM | Activity [23]: Active | inhibition [24]: Active | Ratio IC50 [25]: > 100 | IC50 [26]: 8880 nM

C=CC(=O)Nc1cccc(Cn2c(=O)ccc3cnc(Nc4cnn(C5CCN(C)CC5)c4)nc32)c1
IC50 [1]: 70 nM | IC50 [2]: 2 nM

C/C=C/C(=O)Nc1cccc(Cn2c(=O)ccc3cnc(Nc4ccccc4OC)nc32)c1
IC50 [2]: 4800 nM

C=CC(=O)Nc1cccc(Cn2c(=O)cc(C)c3cnc(Nc4ccc(N5CCN(C)CC5)cc4OC)nc32)c1
IC50 [2]: 18.2 nM
